According to patent US20040219600A1, “Method for determining sensitivity to environmental toxins and susceptibility to parkinson's disease” (priority 2002, published 2004):

Experiments:
[1] = system: embryonic midbrain neurons; settings: C57B1/6 and Swiss-Webster cultures from embryonic midbrain; cited from earlier work
SNpc neurons = experiment: Count of TH-positive SNpc cells one week after subcutaneous MPTP; settings: 80 mg/kg MPTP SC (4 x 20 mg/kg)
Procedure: C57BL/6J (Jackson Laboratory), Swiss-Webster (SWR, Harlan) and C57BL/6J×SWR used in these experiments were between 3 and 5 months of age. […] All animals were generated within our vivarium at St. Jude Children's Hospital and were maintained on a 12:12 hour light: dark cycle with ad libitum food and water. Animals were treated in accord with Animal Care and Use Committee requirements. The analysis presented here is based on neuroanatomical and morphometric data from 58 animals, all of which were genotyped as described below.
Each animal was given a total of 80 mg/kg of MPTP, using a dosage regimen of 4 equal subcutaneous injections of 20 mg/kg, one given every 2 hours. Mice were monitored over the next 24 hours for the degree of mortality and the presence of seizures. […]
Prior to counting TH-positive cells, the rostral to caudal boundaries of the SNpc were identified (German, D. C., et al., The Neurotoxin MPTP Causes Degeneration of Specific Nucleus A8, A9 and A10 Dopaminergic Neurons in the Mouse, Neurodegeneration, 5:299-312 (1996)). […] TH-positive cells within the SNpc in one section per slide were counted using a 20× objective (total magnification 200×). […] The number of cells in the SNpc from several animals were also counted using unbiased stereological measurements using the Bioquant image analysis system (R & 1 Biometrics, Nashville, Tenn.).

[2] = system: postnatal substantia nigra (SN) neurons; experiment: MPTP-induced cell loss in postnatal substantia nigra cultures; type: cell-based, mouse; settings: for loss of T-positive neurons: MPTP 50×10-9
[3] = system: glutathione S-transferase pi2 (GSTp2) mRNA; experiment: Real time PCR of GSTp2 mRNA in substantia nigra after MPTP; type: in vivo, mouse; settings: for expression of GSTp2: C57B1/6 mice; for GSTp2 levels: SW mice
Source text: Using real time PCR technology we are able to measure relative or absolute mRNA levels in from very small sample pools. The RT-PCR reaction includes a forward primer, a primer with a fluorescent 5′ reporter dye and a 3′ quencher dye, and a reverse primer, constructed to hybridize with the target of interest. The 5′ to 3′ activity of the DNA polymerase cleaves the primer between the reporter and the quencher only if the primer hybridizes to the target. The primer is then displaced from the target, polymerization of the strand continues, and the produce accumulates with each cycle. The exponential amplification of product correlates with the initial number of target molecules when normalized to an endogenous reference, and the threshold cycle calculated (a cycle during which there is an exponential accumulation of produce occurring), as long as the efficiency of the target amplification and the efficiency of the reference amplification are approximately equal. To examine the mRNA expression levels of GSTp2, we used real time PCR analysis to examine baseline levels in C57B1/6 and SW mice. […] The expression pattern in SW mice is different.
Higuchi et al (Higuchi R, et al., Simultaneous Amplification and Detection of Specific DNA Sequences, Biotech. (NY) 10:413-17 (1992)) pioneered the analysis of PCR kinetics by constructing a system that detects PCR products as they accumulate. This “real-time” system includes the intercalator ethidium bromide in each amplification reaction, an adapted thermal cycler to irradiate the samples with ultraviolet light, and detection of the resulting fluorescence with a computer-controlled cooled CCD camera. mRNA amplification produces increasing amounts of double-stranded DNA, which binds ethidium bromide, resulting in an increase in fluorescence. By plotting the increase in fluorescence versus cycle number, this method allows one to make precise quantitative measurements of mRNA expression. […]
Higuchi et al (Higuchi R, et al., Simultaneous Amplification and Detection of Specific DNA Sequences, Biotechnology (N Y) 10:413-17 (1992)) pioneered the analysis of PCR kinetics by constructing a system that detects PCR products as they accumulate. This “real-time” system includes the intercalator ethidium bromide in each amplification reaction, an adapted thermal cycler to irradiate the samples with ultraviolet light, and detection of the resulting fluorescence with a computer-controlled cooled CCD camera. Amplification produces increasing amounts of double-stranded DNA, which binds ethidium bromide, resulting in an increase in fluorescence. By plotting the increase in fluorescence versus cycle number, this method […] allows one to make precise quantitative measurements of mRNA expression.
We will be quantitating levels of glutathione S-transferase pi2 mRNA using this technique in place of traditional Northern blots since we have a limited amount of material to generate mRNA and real-time PCR amplification can give precise results with a small amount of sample material. […] Quantitative measurements are made based on the amount of fluorescence detected by amplification of the intervening primer. Details of this method are presented in numerous papers such as (Freeman W M, et al., Quantitative RT-PCR: Pitfalls and Potential. Biotechniques 26:112-122, 124-115 (1999)) as well as from the ABI website. […]

CN1CC=C(c2ccccc2)CC1 [MPTP, 1-methyl-4-phenyl-1,2,3,6-tetrahydropyridine]
cell death [1]: little cell death | number of SNpc neurons following MPTP treatment (SNpc neurons; C57B1/6 animals): 3300±200 | number of SNpc neurons following MPTP treatment (SNpc neurons; SWR animals): 5480+/−239 | loss of T-positive neurons ([2]; SN cultures derived from SWR mice): 10±3% | loss of T-positive neurons ([2]; SN cultures from C57B1/6 mice): 50±5% | percent cell loss in vitro as fraction of the in vivo value ([2]; in vitro SN culture versus in vivo): approximately 80% | expression of GSTp2 ([3]; 24 hours after MPTP): 50% | expression of GSTp2 ([3]; eight hours after the first injection of MPTP): increases | GSTp2 levels ([3]; 8 hours after administration of MPTP): decrease | GSTp2 levels ([3]; 24 hours after MPTP): return to baseline levels | lower induction of glutathione S-transferase pi2 in C57B1/6 mice compared to Swiss-Webster ([3]; forty eight hours after MPTP administration): 50%
